Results reported in patent publication US20240398771A1, “TREATMENT OF SCLERODERMA AND RAYNAUD'S SYNDROME” (Aisa Pharma, Inc., priority 2023, published 2024).

Experiments:
[1] = tested on: participants with SSc-RP; assay: SHAQ Standard Disability Index; type: in vivo, human; details: Example 4, mITT Part A
Excerpt: The standard, validated, patient reported outcome measures tool for SSc patients, the SHAQ, will be collected at the time points specified in the study schedules (FIG. 2 and FIG. 3A and/or FIG. 3B). To assess the participant's quality of life. The SHAQ includes a Raynaud's VAS that will also be reported separately.
The standard, validated, patient reported outcome measures tool for SSc patients, the Scleroderma Health Assessment Questionnaire (SHAQ), will be used to assess the participant qualify of life. Details are attached in the Appendix. The participant quality of life will be scored, and a disability index calculated for each questionnaire completed by the patient at Screening and each in-clinic visit. The absolute change in participant quality of life from baseline to the end of each dosing period will be calculated similar to frequency data as before.
The SHAQ is used to calculate a Disability Index to assess the participant qualify of life. The eight categories assessed by the Disability Index are 1) dressing and grooming, 2) arising, 3) eating, 4) walking, 5) hygiene, 6) reach, 7) grip, and 8) common daily activities. For each of these categories, patients report the amount of difficulty they have in performing two or three specific activities. […]

[2] = tested on: participants with SSc-RP; assay: Average severity (0-10) of weekly symptomatic RP attacks; type: in vivo, human; details: Example 3
Excerpt: (§1) The relevant metrics measured by this tool daily are: • Study medication • SSc-RP symptoms (Reporting an attack including duration of attack) • Severity of the attack considering all symptoms of the attack e.g. tingling, numbness, pain, color changes (VAS 0-10 cm scale) • Participant's location at the time of the attack (inside home/outside home) • Selecting symptoms experienced during the attack (tingling, numbness, pain, color changes, other) • Pain rating during the attack (11-point Likert scale) • The RCS based on how much difficulty participants had with Raynaud's today, how many attacks the participant had, and how long they lasted. Participants will also be asked to consider how much pain, numbness, or other symptoms the Raynaud's caused in fingers (including painful sores), and how much the Raynaud's alone affected the use of hands today (VAS 0-10 cm scale).
The absolute change in average severity of weekly RP attacks (VAS 0-10 cm scale) from baseline to the end of each Dosing Period was and will be a secondary outcome variable. The sponsor-developed participant-informed diary will be used to record data. Average severity of weekly RP attacks is defined as the total severity scores of RP attacks divided by total number of RP attacks within the last 7 days of each dosing period. […] The variable will be calculated similar to frequency data as before.

[3] = 10 mg, single oral dose, healthy volunteers; cited from earlier work
[4] = tested on: participants with SSc-RP; assay: Pain score (11-point Likert scale) recorded during weekly RP attacks; type: in vivo, human; details: Tadalafil 5 mg (n = 4); Raynaud's pain, Table G
Excerpt: as §1
The absolute change in highest pain score (11-point Likert scale) of weekly RP attacks from baseline to the end of each dosing period will be a secondary outcome variable. […] The variable will be calculated similar to frequency data as before.
The absolute change in average pain score (11-point Likert scale) of weekly RP attacks from baseline to the end of each Dosing Period will be a secondary outcome variable. […] The variable will be calculated similar to frequency data as before.

Structure (SMILES)	patient-reported SSc disease disability compared to placebo [1]	severity of attacks as reported by patients, comparison in words [2]	CL/F, Mean [3] [L/h]	Baseline Average Pain Score [Mean (SD)] [4]
COCCOC(=O)C1=C(C)NC(C)=C(C(=O)OC/C=C/c2ccccc2)C1c1cccc([N+](=O)[O-])c1 (stereo not shown) [Cilnidipine, 1,4-dihydro-2,6-dimethyl,4-(3-nitrophenyl)-3,5-pyridinedicarboxylic acid 2-methoxyethyl (2 E)-3-phenyl-2-propenyl ester]	may reduce	20 mg reducing severity more than 10 mg	304.7	–
CN1CC(=O)N2[C@H](c3ccc4c(c3)OCO4)c3[nH]c4ccccc4c3C[C@@H]2C1=O [Tadalafil]	–	–	–	5.47 (3.586)
